# Data from patent publication US20090076199A1, “RED DYE MIXTURE” (LANXESS DEUTSCHLAND GMBH, priority 2007, published 2009).
# How the values were obtained:
# Type in all cases: physicochemical
# [1] = Maximum solubility of the dyes in methyl benzoate and spectral data of the saturated solutions; settings: for Solubility (maximum solubility): in methyl benzoate; for E11 = Extinction (absorbance) of 1 g of this solution in 100 ml of N-methyl-pyrrolidone, 1 cm cell: saturated solution of the dye alone in methyl benzoate
# Experimental: The maximum solubility of the dyes was determined in methyl benzoate.
# [2] = Mass colouring of polystyrene granules, injection moulding at 240° C., fastness; settings: 0.02 g dye per 100 g polystyrene, transparent sheets
# Experimental: a) 100 g of polystyrene granules and 0.02 g of the dye from Example 4 are mixed intensely in a drum mixer for 15 min. The dry-stained granules are processed on a screw injection moulding machine at 240° C. This gives transparent bluish red sheets of very good light fastness and migration fastness.
# [3] = Mass colouring of transparent polyethylene terephthalate, twin-screw extruder at 280° C., fastness; settings: 0.025 g dye per 100 g transparent polyethylene terephthalate
# Experimental: b) 0.025 g of the dye from Example 4 are mixed with 100 g of a transparent polyethylene terephthalate grade and the mixture is homogenized in a twin-screw extruder at 280° C. This gives a transparent bluish red coloration with good light fastness and migration fastness. After subsequent granulation the coloured plastic can be processed in accordance with the typical methods of thermoplastic shaping.
# [4] = Mass colouring of polycarbonate, twin-screw extruder at 290° C., fastness; settings: 0.03 g dye per 100 g polycarbonate
# Experimental: c) 100 g of a commercially customary polycarbonate are dry-mixed in granule form with 0.03 g of the dye from Example 4. The granules dusted in this way are homogenized in a twin-screw extruder at 290° C. This gives a transparent bluish red coloration with good light fastness and migration fastness. The coloured polycarbonate is extruded as a strand from the extruder and processed to granules. The granules can be processed by the typical methods of processing thermoplastic compounds.
Solubility (maximum solubility) [1] [g/100 ml],"E11 = Extinction (absorbance) of 1 g of this solution in 100 ml of N-methyl-pyrrolidone, 1 cm cell [1]",light fastness [2],migration fastness [2],light fastness [3],migration fastness [3],light fastness [4],migration fastness [4],SMILES
0.57,1.8,,,,,,,Nc1c(Oc2ccc(C3(c4ccc(Oc5cc(O)c6c(c5N)C(=O)c5ccccc5C6=O)cc4)CCCCC3)cc2)cc(O)c2c1C(=O)c1ccccc1C2=O [Dye (15)]
,,very good,very good,good,good,good,good,Nc1c(OCCOc2ccc(OCCOc3cc(O)c4c(c3N)C(=O)c3ccccc3C4=O)cc2)cc(O)c2c1C(=O)c1ccccc1C2=O [Example 4]
0.107,0.17,,,,,,,"O=C1c2c(Cl)c(Cl)c(Cl)c(Cl)c2C2=Nc3cccc4cccc(c34)N12 [Dye (7), reference compound]"
